Source: publication PMC9612326 (Viruses, 2022)
Peptide text beside a SMILES is read from it.

What was measured:
[1] = Peptide stability in human serum; details: human serum (50% v/v) from a healthy donor
[2] = target: His-tagged Spike RBD protein (SARS-CoV-2) (UniProt P0DTC2); experiment: BLI

| Compound | half-life at 1 mM [1] | Kd [2] |
| --- | --- | --- |
| CC(C)C[C@H](NC(=O)[C@@H](N)[C@@H](C)O)C(=O)N[C@@H](Cc1c[nH]cn1)C(N)=O [TLH] (H-Thr-Leu-His-NH2) | 4.36 h |  |
| CC[C@H](C)[C@H](NC(=O)[C@H](Cc1ccccc1)NC(=O)[C@@H](N)C(C)C)C(N)=O [VFI] (H-Val-Phe-Ile-NH2) | 12.4 h |  |
| tripeptide VFI |  | 28.4 µM |
| tripeptide TLH |  | 22.8 µM |
